Entries after “also recorded” stand apart in the source; their conditions may differ.

Common to all, as to format: in vivo, cynomolgus monkeys
Series [1] can be described thus: Qualitative distribution of REDD14Cy3.5 siRNA in lung and kidney (fluorescence analysis). Conditions: after oronasal inhalation. How it is done: (§1) On Day 15 of the study, two of the available animals (101 and 102) were administered a target dose of 35 mg/kg of a mixture of I5NP and REDD14Cy3.5 (fluorescence-labelled) siRNA via an oronasal mask as a nebulized aerosol generated by the Aeroneb device. A 2.0 L/min dilution airflow was used. The total dose of siRNA administered was calculated, based on the bodyweights and measured respiratory minute volumes of the animals, and on the achieved output of the Aeroneb device using the formulation concentration of 40 mg/mL of siRNA. The administered dose was adjusted by changing the exposure times for the animals
At the time of necropsy following Treatment 2, the lungs, bronchi and trachea of animal 102 were removed from the animal. The lungs were perfused with 4% paraformaldehyde, introduced using a syringe, via the trachea and/or bronchus and stored in this fixative at ambient temperature for a period of approximately 21 hours. Following this, as much as possible of the original fixative fluid was withdrawn by syringe via the trachea/bronchus and replaced with 0.2% paraformaldehyde. The fixed lungs were analyzed for fluorescence distribution.
At the time of necropsy following Treatment 2, the right kidney of animal 102 was removed from the animal. The kidney was dissected into quarters by making one longitudinal and one transverse cut, each to pass through the hilus, and then immersed in 4% paraformaldehyde and refrigerated for approximately 21 hours. Following this, the fixing solution was changed to 0.2% paraformaldehyde and the kidney was analyzed for fluorescence distribution.
Following Treatment 2, lung and kidney samples from animal 102 were analyzed for distribution of fluorescence (from REDD14Cy3.5 siRNA). The results were considered to be qualitative.

Series [2] is described as follows: Clinical observations after inhalation doses of siRNA. How it is done: Male cynomolgus monkeys were administered single oronasal inhalation doses of a nebulised aerosol formulation of fluorescent-labelled REDD14Cy3.5 and/or I5NP siRNAs. Following dosing, the concentration of I5NP in plasma, the non-compartmental disposition kinetics of I5NP in plasma, the qualitative distribution of REDD14Cy3.5 in lungs and the semi-quantitative distribution of I5NP in lungs were determined.
Animals were treated with test aerosols using a pediatric anesthetic-type oronasal face mask fitted with inlet and outlet tubes and a breathing loop. During treatment, animals were placed in a restraint sling. The test atmospheres were generated using an Aeroneb (Aerogen) nebulizer, and assessed for output as described below. The level of exposure to the test article was achieved by varying the duration of exposure.
On Day 1 of the study, four of the available monkeys (101 to 104) were administered a target dose of 35 mg/kg of I5NP siRNA via an oronasal mask as a nebulized aerosol generated by the Aeroneb device. A 2.0 L/min dilution airflow was used. The total dose administered was calculated, based on the bodyweights and measured respiratory minute volumes of the animals, and on the achieved output of the Aeroneb device using the formulation concentration of 40 mg/mL. The administered dose was adjusted by changing the exposure times for the animals. […]

Series [3] is described as follows: Semi-quantitative distribution of I5NP siRNA in lung (hybridization assay). How it is done: as §1
On Day 35 of the Study, the three remaining main study animals (103 to 105) were administered a target dose of 35 mg/kg of I5NP siRNA via an oronasal mask as a nebulized aerosol generated by the Aeroneb device. A 2.0 L/min dilution airflow was used. The total dose administered was calculated, based on the bodyweights and measured respiratory minute volumes of the animals, and on the achieved output of the Aeroneb device using the formulation concentration of 40 mg/mL. The administered dose was adjusted by changing the exposure times for the animals.
At the time of necropsy following Treatment 2, the lungs of animal 101 were removed from the animal. The lungs were separated into individual lobes. The bronchi/bronchioles and immediately surrounding regions of each lobe were dissected out as carefully as was practicable and pooled, per lobe. The remaining tissue areas were pooled, per lobe. Each pooled sample (i.e. bronchi/bronchioles and remaining tissue for each lobe) was stored deep-frozen (−80° C.) for analysis via hybridization assay. Lung samples from animal 101 were tracked using the Watson LIMS system.
At each specified time of necropsy following Treatment 3, the lungs of animals 103, 104 or 105 were removed from the animals. Each set of lungs were separated into individual lobes. The bronchi/bronchioles and immediately surrounding regions of each lobe were dissected out as carefully as was practicable and pooled, per lobe. The remaining tissue areas were pooled, per lobe. […]
All lung samples from animal 101 (i.e. left cranial lobe, bronchioles and remainder; left caudal lobe, bronchioles and remainder; right cranial lobe, bronchioles and remainder; right middle lobe, bronchioles and remainder; right caudal lobe, bronchioles and remainder and right accessory lobe, bronchioles and remainder) were analyzed for I5NP siRNA concentration. For animals 103, 104 and 105, left cranial lobe (bronchioles and remainder) and right caudal lobe (bronchioles and remainder) were analyzed for I5NP siRNA concentration. […] The results obtained for lung samples were considered as semi-quantitative.

Take “I5NP: exemplary p53 inhibiting siRNA; sense GAGAAUAUUUCACCCUUCA, antisense UGAAGGGUGAAAUAUUCUC (chemistry not given here)”: the “distribution in lung, I5NP (hybridization) and REDD14Cy3.5 (fluorescence) compared” value in series [1] is “little difference in the distribution of the two test articles in lung”. Further, the “macroscopic findings in organs and tissues” value in series [2] (necropsy after inhalation doses) is recorded as “of no toxicological significance”. The treatment-related clinical signs entry in series [2] (single oronasal inhalation doses, target 35 mg/kg) is recorded as “No treatment-related clinical signs were observed”. The “I5NP concentration in bronchioles and peripheral lung tissues” value in series [3] (Treatment 2 (I5NP:REDD14Cy3.5 9:1), animal 101, approximately 30 minutes post-end of dosing, all 6 lobes, semi-quantitative) is “found in high concentrations in both bronchioles and in peripheral tissues of all lobes of each lung”. The “I5NP concentration, peripheral tissues versus bronchiolar samples” value in series [3] (Treatment 2, animal 101, approximately 30 minutes post-end of dosing) is “generally higher in the peripheral tissues than in the bronchiolar samples”. For the same substance, the “relative concentrations in bronchiolar and peripheral lung tissues over time” value in series [3] (Treatment 3, animals 103, 104, 105, 6, 24 and 72 h post-end of dosing, left cranial and right caudal lobes) was “still detectible at 72 hours post-end of dosing”. In addition, the “levels in lungs compared with plasma” value in series [3] (all time points post-dose) was “at all times greater than those in plasma; also recorded: higher than in plasma”.

The values above are taken from patent publication US20100215588A1, “THERAPEUTIC DELIVERY OF INHIBITORY NUCLEIC ACID MOLECULES TO THE RESPIRATORY SYSTEM” (priority 2007, published 2010).
